In PubChem BioAssay (NCI) one finds GI50 and TGI data, which are given here for one compound.

Molecules are shown by their SMILES.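 Growth conditions: 96-well plates. Treatment: test compound, 48 hours, 5 concentrations. Analysis: linear interpolation between bracketing concentrations; unreached endpoints set to highest concentration. GI50 is the concentration that inhibits growth by half. TGI marks complete inhibition of growth.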

Test systems include MDA-MB-435; OVCAR-3 ovarian; DU-145 prostate; PC-3 prostate; HCC-2998 colon; T-47D breast; HT29 colon; HOP-62 NSCLC; RPMI-8226 leukemia; SK-MEL-28 melanoma.
What all share (test): NCI anticancer screen, dose series, 48 h

`Cc1ccc(/C=C(\C#N)c2cc3ccccc3n2C)cc1`: the GI50 in the assay with MDA-MB-435 was 0.0502 µM; with OVCAR-3 ovarian it was 0.361 µM; in the assay on DU-145 prostate, 0.469 µM; with PC-3 prostate, 0.403 µM; in the assay on HCC-2998 colon, 0.484 µM; with T-47D breast, 0.587 µM. The GI50 was 0.356 µM with HT29 colon, 0.474 µM in the assay with HOP-62 NSCLC, 0.38 µM in the assay on RPMI-8226 leukemia and more than 100 µM with SK-MEL-28 melanoma. For the same compound, the TGI was 0.334 µM with MDA-MB-435; more than 100 µM with DU-145 prostate; more than 100 µM in the assay with PC-3 prostate; more than 100 µM with HCC-2998 colon; more than 100 µM with T-47D breast; more than 100 µM in the assay with HT29 colon. Further, the TGI in the assay on HOP-62 NSCLC, in the assay on RPMI-8226 leukemia and in the assay on SK-MEL-28 melanoma was more than 100 µM each time.
